Target: T1, recombinant human LTA4 hydrolase (rhLTA4H) (Homo sapiens, UniProt P09960)
T1 construct: made in house; host or cells: Spodoptera frugiperda (Sf-9) cells, baculovirus (pFastBac1)
T1 sequence (P09960 1-611): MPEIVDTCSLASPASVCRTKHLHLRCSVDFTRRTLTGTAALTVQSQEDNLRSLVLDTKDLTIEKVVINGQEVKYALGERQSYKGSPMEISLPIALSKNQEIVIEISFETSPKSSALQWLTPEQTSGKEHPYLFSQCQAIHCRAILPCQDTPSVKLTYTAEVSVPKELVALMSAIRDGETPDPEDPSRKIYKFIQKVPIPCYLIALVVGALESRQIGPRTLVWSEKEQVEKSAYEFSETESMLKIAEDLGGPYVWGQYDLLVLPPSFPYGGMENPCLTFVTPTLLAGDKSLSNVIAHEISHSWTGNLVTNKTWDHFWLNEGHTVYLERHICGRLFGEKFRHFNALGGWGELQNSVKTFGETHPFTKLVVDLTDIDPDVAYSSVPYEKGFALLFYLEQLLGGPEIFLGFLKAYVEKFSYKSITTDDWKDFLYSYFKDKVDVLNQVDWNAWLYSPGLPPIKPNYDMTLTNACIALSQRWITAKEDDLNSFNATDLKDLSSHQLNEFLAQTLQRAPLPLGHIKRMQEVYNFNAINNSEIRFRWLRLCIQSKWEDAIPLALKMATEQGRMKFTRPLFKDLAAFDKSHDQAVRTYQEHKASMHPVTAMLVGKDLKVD
Test: Recombinant Human LTA4 Hydrolase Assay for LTA4 Hydrolase Inhibitor Activity
Type: biochemical
Conditions: average of results obtained; LTB4 quantified by enzyme-linked immunoassay
Experimental: Biological Methods: Recombinant Human LTA4 Hydrolase Assay for LTA4 Hydrolase Inhibitor Activity
Compounds of the present invention were tested for LTA4 hydrolase inhibitor activity against recombinant human LTA4 hydrolase (rhLTA4H). Vectors were prepared and used to express rhLTA4H essentially as follows: LTA4 hydrolase encoding DNA was amplified by polymerase chain reaction (PCR) using a human placental cDNA library as a template. Oligonucleotide primers for the PCR reaction were based on the 5′-end, and the complement of the 3′-end, of the published nucleotide sequence for the coding region of the human LTA4 hydrolase gene (C. D. Funk et al., Proc. Natl. Acad. Sci. USA 1987, 84:6677-6681). The amplified 1.9 kb DNA fragment encoding LTA4 hydrolase was isolated and cloned into the pFastBac1 vector (Invitrogen). Recombinant baculovirus was generated as described by the manufacturer, and used to infect Spodoptera frugiperda (Sf-9) cells. Recombinant LTA4 hydrolase enzyme was purified from the infected Sf-9 cells essentially as described by J. K. Gierse et al. (Protein Expression and Purification 1993, 4:358-366). The purified enzyme solution was adjusted to contain 0.29 mg/mL LTA4 hydrolase, 50 mM Tris (pH 8.0), 150 mM NaCl, 5 mM dithiothreitol, 50% glycerol, and EDTA-free Complete protease inhibitor cocktail (Roche). The specific activity of the enzyme was about 3.8 μmol/min/mg.
LTA4 substrate was prepared from the methyl ester of LTA4 (Cayman Chemical) by treatment with 67 equiv of NaOH under nitrogen at rt for 40 min. The LTA4 substrate in its free acid form was kept frozen at −80° C. until needed. Each compound was diluted to different concentrations in assay buffer (0.1 M potassium phosphate (pH 7.4), 5 mg/mL fatty acid free BSA) containing 10% DMSO. A 25-uL aliquot of each compound dilution was incubated for 10 min at rt with an equal volume of assay buffer containing 36 ng of recombinant human LTA4H. The solution was then adjusted to 200 μL with assay buffer. LTA4 (free acid) was thawed and diluted in assay buffer to a concentration of 357 ng/mL, and 25 μL (9 ng) of LTA4 substrate was added to the reaction mixture (total volume=225 μL) at time zero. Each reaction was carried out at rt for 10 min. The reaction was stopped by diluting 10 μL of the reaction mixture with 200 μL of assay buffer. LTB4 was quantified in the diluted sample by a commercially available enzyme-linked immunoassay (Cayman Chemical Co.), as recommended by the manufacturer. Positive controls, under essentially identical conditions but without addition of an inhibitor compound, and negative controls, containing all assay components except enzyme, were routinely run in each experiment. […]
Results for the compounds tested in this assay are presented in Table 1 as an average of results obtained.

NC(=O)N1[C@@H]2CC[C@H]1C[C@@H](NCCOc1ccc(Oc3nc4cc(Cl)ccc4s3)cc1)C2 [Example 257, meso-endo-3-{2-[4-(5-Chloro-benzothiazol-2-yloxy)-henoxy]-ethylamino}-8-aza-bicyclo[3.2.1]octane-8-carboxylic acid amide]
Ki: 490 nM

O=C(c1cccs1)N1CC2CN(Cc3ccc(Oc4nc5ccccc5s4)cc3)CC2C1 (centres unmarked) [Example 107, {5-[4-(Benzothiazol-2-yloxy)-benzyl]-hexahydro-pyrrolo[3,4-c]pyrrol-2-yl}-thiophen-2-yl-methanone]
Ki: 20 nM

CC(=O)N1C2CCC1CN(Cc1ccc(Oc3nc4ccccc4s3)cc1)C2 [Example 51, meso-1-{3-[4-(Benzothiazol-2-yloxy)-benzyl]-3,8-diaza-bicyclo[3.2.1]oct-8-yl}-ethanone]
Ki: 92 nM

Cc1ccc2nc(Oc3ccc(CCN4CC5CN(C(N)=O)CC5C4)cc3)sc2c1 (centres unmarked) [Example 146]
Ki: 78 nM

NCC(=O)N1C2CCC1CN(Cc1ccc(Oc3nc4ccccc4s3)cc1)C2 [Example 55, meso-2-Amino-1-{3-[4-(benzothiazol-2-yloxy)-benzyl]-3,8-diaza-bicyclo[3.2.1]oct-8-yl}-ethanone]
Ki: 116 nM

O=C(N1C[C@@H]2C[C@H]1CN2CCc1cccc(Oc2nc3ccccc3s2)c1)C1(O)CC1 [Example 18, (S,S)-(5-{2-[3-(Benzothiazol-2-yloxy)-phenyl]-ethyl}-2,5-diaza-bicyclo[2.2.1]hept-2-yl)-(1-hydroxy-cyclopropyl)-methanone]
Ki: 66 nM

CS(=O)(=O)N1C[C@@H]2C[C@H]1CN2CCOc1ccc(Oc2nc3cccc(Cl)c3s2)cc1 [Example 182, (S,S)-7-Chloro-2-{4-[2-(5-methanesulfonyl-2,5-diaza-bicyclo[2.2.1]hept-2-yl)-ethoxy]-phenoxy}-benzothiazole]
Ki: 1590 nM

NC(=O)N1C[C@H]2C[C@@H]1CN2CCc1ccc(Oc2nc3cccc(F)c3s2)cc1 [Example 245, (R,R)-5-{2-[4-(7-Fluoro-benzothiazol-2-yloxy)-phenyl]-ethyl}-2,5-diaza-bicyclo[2.2.1]heptane-2-carboxylic acid amide]
Ki: 12 nM

NC(=O)N[C@@H]1C[C@H]2CC[C@@H](C1)N2CCc1ccc(Oc2nc3cc(F)ccc3s2)cc1 [Example 242, meso-exo-(8-{2-[4-(5-Fluoro-benzothiazol-2-yloxy)-phenyl]-ethyl}-8-aza-bicyclo[3.2.1]oct-3-yl)-urea]
Ki: 398 nM

NC(=O)N1[C@@H]2CC[C@H]1C[C@@H](NCCOc1ccc(Oc3nc4c(Cl)cccc4s3)cc1)C2 [Example 221, meso-endo-3-{2-[4-(4-Chloro-benzothiazol-2-yloxy)-phenoxy]-ethylamino}-8-aza-bicyclo[3.2.1]octane-8-carboxylic acid amide]
Ki: 802 nM

CS(=O)(=O)N1C[C@@H]2C[C@H]1CN2Cc1ccc(Cc2nc3ccccc3s2)cc1 [Example 45, (S,S)-2-[4-(5-Methanesulfonyl-2,5-diaza-bicyclo[2.2.1]hept-2-ylmethyl)-benzyl]-benzothiazole]
Ki: 190 nM

O=C(N1C[C@H]2C[C@@H]1CN2Cc1ccc(Oc2nc3ccccc3s2)cc1)C1(O)CC1 [Example 26, (R,R)-{5-[4-(Benzothiazol-2-yloxy)-benzyl]-2,5-diaza-bicyclo[2.2.1]hept-2-yl}-(1-hydroxy-cyclopropyl)-methanone]
Ki: 37 nM

NC(=O)N1C[C@H]2C[C@@H]1CN2Cc1ccc(Oc2nc3cccc(Cl)c3s2)cc1 [Example 196, (R,R)-5-[4-(7-Chloro-benzothiazol-2-yloxy)-benzyl]-2,5-diaza-bicyclo[2.2.1]heptane-2-carboxylic acid amide]
Ki: 793 nM

O=C(CO)N1C[C@@H]2C[C@H]1CN2CCc1ccc(Oc2nc3ccccc3s2)cc1 [Example 15, (S,S)-1-(5-{2-[4-(Benzothiazol-2-yloxy)-phenyl]-ethyl}-2,5-diaza-bicyclo[2.2.1]hept-2-yl)-2-hydroxy-ethanone]
Ki: 18 nM

NC(=O)N1C[C@H]2C[C@@H]1CN2CCOc1ccc(Oc2nc3cc(Cl)ccc3s2)cc1 [Example 176, (R,R)-5-{2-[4-(5-Chloro-benzothiazol-2-yloxy)-phenoxy]-ethyl}-2,5-diaza-bicyclo[2.2.1]heptane-2-carboxylic acid amide]
Ki: 431 nM

CC(=O)N1CC2CCN(Cc3ccc(Oc4nc5ccccc5s4)cc3)C2C1 (centres unmarked) [Example 86, 1-{1-[4-(Benzothiazol-2-yloxy)-benzyl]-hexahydro-pyrrolo[3,4-b]pyrrol-5-yl}-ethanone]
Ki: 55 nM

NC(=O)N1CCC2CN(Cc3ccc(Oc4nc5ccccc5s4)cc3)CC2C1 (centres unmarked) [Example 143, 2-[4-(Benzothiazol-2-yloxy)-benzyl]-octahydro-pyrrolo[3,4-c]pyridine-5-carboxylic acid amide]
Ki: 33 nM

O=C(c1ccno1)N1CC2CN(Cc3ccc(Oc4nc5ccccc5s4)cc3)CC2C1 (centres unmarked) [Example 114, {5-[4-(Benzothiazol-2-yloxy)-benzyl]-hexahydro-pyrrolo[3,4-c]pyrrol-2-yl}-isoxazol-5-yl-methanone]
Ki: 33 nM

CC(=O)N1[C@@H]2CC[C@H]1C[C@H](NCc1ccc(Oc3nc4cccc(Cl)c4s3)cc1)C2 [Example 166, meso-exo-1-{3-[4-(7-Chloro-benzothiazol-2-yloxy)-benzylamino]-8-aza-bicyclo[3.2.1]oct-8-yl}-ethanone]
Ki: 1900 nM

O=C(CO)N1CC2CCN(Cc3ccc(Oc4nc5ccccc5s4)cc3)CC2C1 (centres unmarked) [Example 117, 1-{5-[4-(Benzothiazol-2-yloxy)-benzyl]-octahydro-pyrrolo[3,4-c]pyridin-2-yl}-2-hydroxy-ethanone]
Ki: 20 nM

CCOC(=O)CN1CC2CN(Cc3ccc(Oc4nc5ccccc5s4)cc3)CC2C1 (centres unmarked) [Example 155, {5-[4-(Benzothiazol-2-yloxy)-benzyl]-hexahydro-pyrrolo[3,4-c]pyrrol-2-yl}-acetic acid ethyl ester]
Ki: 170 nM

CC(=O)N1[C@@H]2CC[C@H]1C[C@H](NCc1ccc(Oc3nc4ccc(C)cc4s3)cc1)C2 [Example 184, meso-exo-1-{3-[4-(6-Methyl-benzothiazol-2-yloxy)-benzylamino]-8-aza-bicyclo[3.2.1]oct-8-yl}-ethanone]
Ki: 406 nM

CC(C)(C)OC(=O)NCC(=O)N1C[C@@H]2C[C@H]1CN2CCOc1ccc(Oc2nc3ccccc3s2)cc1 [Example 30, (S,S)-[2-(5-{2-[4-(Benzothiazol-2-yloxy)-phenoxy]-ethyl}-2,5-diaza-bicyclo[2.2.1]hept-2-yl)-2-oxo-ethyl]-carbamic acid tert-butyl ester]
Ki: 16 nM

O=C(CO)N1C[C@@H]2C[C@H]1CN2Cc1ccc(Oc2nc3ccccc3s2)cc1F [Example 78, (S,S)-1-{5-[4-(Benzothiazol-2-yloxy)-2-fluoro-benzyl]-2,5-diaza-bicyclo[2.2.1]hept-2-yl}-2-hydroxy-ethanone]
Ki: 39 nM

O=S(=O)(c1cccnc1)N1CC2CN(Cc3ccc(Oc4nc5ccccc5s4)cc3)CC2C1 (centres unmarked) [Example 120, 2-{4-[5-(Pyridine-3-sulfonyl)-hexahydro-pyrrolo[3,4-c]pyrrol-2-ylmethyl]-phenoxy}-benzothiazole]
Ki: 205 nM

CC(=O)N[C@@H]1C[C@H]2CC[C@@H](C1)N2CCOc1ccc(Oc2nc3c(Cl)cccc3s2)cc1 [Example 240, meso-exo-N-(8-{2-[4-(4-Chloro-benzothiazol-2-yloxy)-phenoxy]-ethyl}-8-aza-bicyclo[3.2.1]oct-3-yl)-acetamide]
Ki: 510 nM

Reference: US8344008B2 (Janssen Pharmaceutica NV, priority 2007, dated 2013)
